Assay results: PubChem BioAssay (NCI)
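A five-concentration, 48-hour dose response in 96-well plates underlies each endpoint, interpolated linearly between surrounding concentrations. GI50 marks 50% less growth. TGI: concentration producing complete growth inhibition.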

Experiments:
Test in all cases: DTP human tumour cell line panel, 48 h
[1] = system: 786-0 renal
[2] = system: A498 renal
[3] = system: A549 NSCLC
[4] = system: ACHN renal
[5] = system: BT-549 breast
[6] = system: CAKI-1 renal
[7] = system: CCRF-CEM leukemia
[8] = system: COLO 205 colon
[9] = system: DU-145 prostate
[10] = system: HCC-2998 colon
[11] = system: HCT-116 colon
[12] = system: HCT-15 colon
[13] = system: HL-60(TB) leukemia
[14] = system: HOP-62 NSCLC
[15] = system: HOP-92 NSCLC
[16] = system: HS 578T breast
[17] = system: HT29 colon
[18] = system: IGROV1 ovarian
[19] = system: K-562 leukemia
[20] = system: KM12 colon
[21] = system: LOX IMVI melanoma
[22] = system: M14 melanoma
[23] = system: MALME-3M melanoma
[24] = system: MCF7 breast
[25] = system: MDA-MB-231 breast
[26] = system: MDA-MB-435
[27] = system: MOLT-4 leukemia
[28] = system: NCI-H226 lung
[29] = system: NCI-H23 lung
[30] = system: NCI-H460 lung
[31] = system: NCI-H522 lung
[32] = system: NCI/ADR-RES ovarian
[33] = system: OVCAR-3 ovarian
[34] = system: OVCAR-4 ovarian
[35] = system: OVCAR-5 ovarian
[36] = system: OVCAR-8 ovarian
[37] = system: PC-3 prostate
[38] = system: RPMI-8226 leukemia
[39] = system: RXF 393 renal
[40] = system: SF-268 CNS
[41] = system: SF-295 CNS
[42] = system: SF-539 CNS
[43] = system: SK-MEL-2 melanoma
[44] = system: SK-MEL-28 melanoma
[45] = system: SK-MEL-5 melanoma
[46] = system: SK-OV-3 ovarian
[47] = system: SN12C renal
[48] = system: SNB-19 CNS
[49] = system: SNB-75 CNS
[50] = system: SR leukemia
[51] = system: SW-620 colon
[52] = system: T-47D breast
[53] = system: TK-10 renal
[54] = system: U251 CNS
[55] = system: UACC-257 melanoma
[56] = system: UACC-62 melanoma
[57] = system: UO-31 renal

CCC(=O)N1C/C(=C/c2ccc(Br)cc2)C(=O)/C(=C/c2ccc(Br)cc2)C1
GI50 [1]: 546 nM | TGI [1]: 1200 nM | GI50 [2]: 1430 nM | TGI [2]: 3060 nM | GI50 [3]: 745 nM | TGI [3]: 10800 nM | GI50 [4]: 694 nM | TGI [4]: 1870 nM | GI50 [5]: 653 nM | TGI [5]: 1390 nM | GI50 [6]: 1210 nM | GI50 [7]: 880 nM | TGI [7]: 4600 nM | GI50 [8]: 611 nM | TGI [8]: 1740 nM | GI50 [9]: 1020 nM | TGI [9]: 3220 nM | GI50 [10]: 802 nM | TGI [10]: 2090 nM | GI50 [11]: < 41.7 nM | TGI [11]: 311 nM | GI50 [12]: 295 nM | TGI [12]: 1310 nM | GI50 [13]: 1860 nM | TGI [13]: 5630 nM | GI50 [14]: 259 nM | TGI [14]: 829 nM | GI50 [15]: 1690 nM | TGI [15]: 4130 nM | GI50 [16]: 644 nM | TGI [16]: 4120 nM | GI50 [17]: 102 nM | TGI [17]: 433 nM | GI50 [18]: 766 nM | TGI [18]: 2270 nM | GI50 [19]: 183 nM | TGI [19]: 6100 nM | GI50 [20]: 186 nM | TGI [20]: 553 nM | GI50 [21]: < 33.3 nM | TGI [21]: 248 nM | GI50 [22]: 885 nM | TGI [22]: 2700 nM | GI50 [23]: 1690 nM | TGI [23]: 3630 nM | GI50 [24]: 271 nM | TGI [24]: 1560 nM | GI50 [25]: 760 nM | TGI [25]: 2360 nM | GI50 [26]: 524 nM | TGI [26]: 1460 nM | GI50 [27]: 1060 nM | TGI [27]: 5690 nM | GI50 [28]: 1130 nM | TGI [28]: 4380 nM | GI50 [29]: 1310 nM | TGI [29]: 3460 nM | GI50 [30]: 827 nM | TGI [30]: 3070 nM | GI50 [31]: 1400 nM | TGI [31]: 2800 nM | GI50 [32]: 1360 nM | TGI [32]: 32800 nM | GI50 [33]: 588 nM | TGI [33]: 1560 nM | GI50 [34]: 1010 nM | TGI [34]: 3750 nM | GI50 [35]: 1320 nM | TGI [35]: 3220 nM | GI50 [36]: 499 nM | TGI [36]: 2880 nM | GI50 [37]: 632 nM | TGI [37]: 2290 nM | GI50 [38]: < 49.7 nM | GI50 [39]: 220 nM | TGI [39]: 522 nM | GI50 [40]: 902 nM | TGI [40]: 3060 nM | GI50 [41]: 1600 nM | TGI [41]: 4300 nM | GI50 [42]: 706 nM | TGI [42]: 1790 nM | GI50 [43]: 1930 nM | TGI [43]: 4000 nM | GI50 [44]: 1530 nM | TGI [44]: 3130 nM | GI50 [45]: 996 nM | TGI [45]: 2450 nM | GI50 [46]: 1730 nM | TGI [46]: 5980 nM | GI50 [47]: 424 nM | TGI [47]: 1580 nM | GI50 [48]: 995 nM | TGI [48]: 2900 nM | GI50 [49]: 2340 nM | TGI [49]: 9710 nM | TGI [50]: 1020 nM | GI50 [51]: 220 nM | TGI [51]: 820 nM | GI50 [52]: 673 nM | TGI [52]: 2540 nM | GI50 [53]: 357 nM | TGI [53]: 1280 nM | GI50 [54]: 240 nM | TGI [54]: 763 nM | GI50 [55]: 1630 nM | TGI [55]: 3470 nM | GI50 [56]: 724 nM | TGI [56]: 2060 nM | GI50 [57]: 607 nM | TGI [57]: 1500 nM
